Results reported in patent publication US7910622B2, “Modulation of bacterial quorum sensing with synthetic ligands” (Wisconsin Alumni Research Foundation, priority 2007, dated 2011).
Read-outs that look alike come from different tables or passages of the source.

Columns and labels:
[1] = system: wild-type V. fischeri ES114; assay: Luminescence dose response in wild-type V. fischeri ES114; assay type: cell-based, Vibrio fischeri; conditions: relative to OHHL
Protocol: Vibrio fischeri assay procedures. For primary agonism assays, an appropriate amount of concentrated control or PHL (11) stock solution, to give a final concentration of 200 μM, was added to wells in a 96-well multititer plate. An overnight culture of V. fischeri ES114 (WT, Δ-luxI or Δ-luxR) was diluted 1:10 with LBS medium. A-200 μL portion of the diluted culture was added to each well of the plate. Plates were grown at RT with shaking (200 rpm) until the OD600=0.35-0.4 (4-6 h). Luminescence then was measured and normalized to cell density per well. […] Similar methods were used for dose response assays, except the concentrations of controls and PHLs 11 used were between 0.02 and 2×10^5 nM. All assays were performed in triplicate. IC50 and EC50 values were calculated using GraphPad Prism software using a sigmoidal curve fit.

QscR = target: T1, QscR (Pseudomonas aeruginosa, UniProt G3XD77); assay: QscR competitive antagonism reporter gene assay (β-gal) against DDHL in recombinant E. coli (pJN105Q); assay type: cell-based
T1 construct: expressed in transfected cells; host or cells: recombinant E. coli (pJN105Q) with β-gal promoter fusion
T1 sequence (G3XD77 entry or part of it): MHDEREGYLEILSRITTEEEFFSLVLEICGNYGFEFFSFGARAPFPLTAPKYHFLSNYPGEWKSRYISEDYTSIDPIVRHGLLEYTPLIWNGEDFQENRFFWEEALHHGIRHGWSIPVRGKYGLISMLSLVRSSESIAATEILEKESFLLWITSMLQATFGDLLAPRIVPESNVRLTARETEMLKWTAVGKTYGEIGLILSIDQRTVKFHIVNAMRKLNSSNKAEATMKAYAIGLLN
Protocol: The bacterial reporter strains used in this study were: E. coli pJN105L (P. aeruginosa, LasR), P. aeruginosa MW1 yfp (LasR), E. coli pJN105Q (P. aeruginosa, QscR), A. tumefaciens WCF (TraR), and V. fischeri ES114-luxI (LuxR).
We screened our AHL libraries for agonistic and antagonistic activity against QscR using a previously reported, recombinant E. coli strain that reports QscR activity via the production of β-galactosidase (β-gal) from a promoter fusion. […] All AHLs were examined at 5 μM concentrations.

[2] = target: QscR:DNA binding (PA1897 promoter) (Pseudomonas aeruginosa, UniProt G3XD77)
Sequence of QscR:DNA binding (PA1897 promoter) (G3XD77 entry or part of it): as above
From the text: We sought to obtain further insights into the mechanism of QscR modulation by non-native AHLs. […] We therefore performed electromobility shift assays (EMSA) on purified QscR and radiolabeled PA1897 promoter in the presence of selected QscR antagonists and 1.

Row | Compound | activity in wild-type V. fischeri [1] | IC50 (QscR) | inhibition of OdDHL-dependent QscR:DNA binding ([2]; 100:1 ratio with OdDHL) | reduction of QscR:DNA binding ([2]; 1000:1 ratio vs. OdDHL) | inhibition of OdDHL-dependent QscR:DNA binding ([2]; EMSA)
1 | 3-nitro PHL [B17] | super-agonistic activity | – | – | – | –
2 | O=C(Cc1ccc(-c2ccccc2)cc1)N[C@H]1CCOC1=O [C18, 4-phenyl PHL] | – | 30 nM | 85% | 100% | capable of inhibiting OdDHL (1)-dependent QscR:DNA binding
